In paper PMC4913735, “Non‐glycosidic compounds can stimulate both human and mouse iNKT cells” (European Journal of Immunology, 2016):

How the values were obtained:
human iNKT‐cell TCR = human iNKT‐cell TCR (Homo sapiens, UniProt A0A0B4J240+P15813); experiment: SPR (BIAcore) binding of soluble human iNKT‐cell TCR to hCD1d/lipid complexes; conditions: for Kd: SPR equilibrium binding, hCD1d refolded with lipid, read-out: K d, human iNKT‐cell TCR binding to hCD1d/lipid complex; for koff: SPR kinetics experiment, read-out: k off, human iNKT‐cell TCR from hCD1d/lipid complex
Description: Two analogs of ThrCer, ThrCer 6, and ThrCer 7 were synthesized. […] We first carried out measurements to assess the binding affinity of these ThrCer analogs to human iNKT‐cell TCR (Fig. 1B). Recombinant human CD1d (hCD1d) molecules were refolded in vitro with ThrCer 6 and ThrCer 7 separately and coupled to BIAcore chips, over which refolded human iNKT‐cell TCR was injected at different concentrations 34. […] Importantly, these findings were consistent with data obtained using tetrameric human iNKT‐cell TCRs as a staining reagent to identify lipid/CD1d complexes on the surface of C1R cells that had been transfected with hCD1d cDNA (hCD1d C1R cells) and subsequently loaded with the different lipids 34 (Fig. 1C).
(§1) Soluble human invariant TCR was generated as previously described 34 where both the Vα24 and Vβ11 chains were individually overexpressed in Escherichia coli, purified from the inclusion bodies, then refolded, and purified to generate the TCR heterodimers, according to Boulter et al. 43. The murine TCR was generated according to Pellici et al. as a chimeric molecule (with variable murine regions and human constant regions) 44. The hybrid alpha chains and beta chains were individually expressed in E. coli and purified from the inclusion bodies, then refolded as above.
(§2) SPR experiments were performed with a BIAcore 3000 to measure the affinity and kinetics of iNKT‐cell TCR binding to human CD1d–ligand complexes. In brief, approximately 1000 RU of the biotinylated hCD1d–lipid complexes were immobilized onto streptavidin‐coated CM5 sensor chips (BIAcore). Aliquots of purified TCR with increasing concentrations were passed over immobilized hCD1d–lipid complex at a flow rate of 10 μL/min for the equilibrium‐binding experiments or 50 μL/min for the kinetics experiments. The dissociation constants, K d, were calculated by fitting the data from the equilibrium‐binding experiment to a non‐linear regression saturation binding model (GraphPad Prism 5.0), whereas the k off data were estimated from the kinetics experiments by fitting the data with the built‐in models of the BIAeval3.1 software (BIAcore).

[1] = biological target: murine Vα14/Vβ8 iNKT‐cell TCR (Mus musculus, UniProt P11609+Z9CWY5XBV8); experiment: SPR binding of soluble murine iNKT‐cell TCR to mCD1d/lipid complexes; conditions: for Kd: SPR equilibrium binding, mCD1d loaded with lipid, read-out: K d, murine iNKT‐cell TCR binding to mCD1d/lipid complex
Text: In order to extend the analysis of the ability of ThrCer analogs to activate iNKT‐cells in vivo, we assessed their ability to promote a response in a murine model. First, we performed binding assays using in vitro‐loaded murine recombinant CD1d (mCD1d) molecules and in vitro‐refolded murine Vα14/Vβ8 iNKT‐cell TCR.
as §1, §2

[2] = test system: EG7 cells (OVA‐expressing EL4); experiment: Injection of OVA plus iNKT‐cell agonist in EG7 tumor‐bearing mice; type: in vivo; conditions: 1 μg lipid i.v. with OVA, 4 days after EG7 s.c.; for OVA‐specific CD8+ T cells in blood (tetramer) in tumor‐bearing mice: bled 7 days later
Description: To test the functional consequences of iNKT‐cell‐induced DC maturation (Fig. 1E and Supporting Information Fig. 1) and to assess whether iNKT‐cell activation mediated by the injection of either ThrCer 6 or ThrCer 7 could lead to cross‐presentation of peptides derived from soluble antigenic proteins, mice were injected with the tumor cell line EL4 encoding the full‐length OVA and then 4 days later were immunized i.v. with full‐length OVA together with 1 μg of non‐glycosidic iNKT‐cell agonists. As a control, mice were injected with α‐GalCer with full‐length OVA. Seven days later, OVA‐specific CD8^+ T‐cells were detected in the blood by H‐2 K^b/OVA257–264 tetramer staining of CD8^+ T cells.
Figure 4 Injection of ThrCer 6 with OVA into tumor‐bearing mice results in tumor regression. Mice (n = 4–6) were injected s.c. with OVA‐expressing EL4 cells (EG7 cells). Four days later mice were injected i.v. with OVA protein together with either vehicle or 1 μg of the indicated iNKT‐cell agonist. (A) Seven days later mice were bled and the number of H‐2K^b 257‐264 tetramer^+ cells was assessed by FACS analysis. (B) The size of the tumor was subsequently measured regularly using calipers and expressed as surface area. The arrow indicates the timing of the injection of soluble OVA plus iNKT‐cell agonists. (A and B) Data are shown as mean ± SEM and are representative of two independent experiments.
Mice (n = 4–6) were injected subcutaneously (s.c.) with 1 × 10^6 EG7 cells (a derivative of the thymoma EL4, expressing the OVA protein). Four days later mice were injected i.v. with 800 μg OVA together with either vehicle or 1 μg of the indicated iNKT‐cell agonist. Seven days later mice were bled and the number of H‐2K^b 257–264 tetramer^+ cells was assessed by FACS analysis. The size of the tumor was subsequently measured regularly using calipers and expressed as surface area.

Sequence of murine Vα14/Vβ8 iNKT‐cell TCR (P11609 whole entry, looked up, other chains not shown): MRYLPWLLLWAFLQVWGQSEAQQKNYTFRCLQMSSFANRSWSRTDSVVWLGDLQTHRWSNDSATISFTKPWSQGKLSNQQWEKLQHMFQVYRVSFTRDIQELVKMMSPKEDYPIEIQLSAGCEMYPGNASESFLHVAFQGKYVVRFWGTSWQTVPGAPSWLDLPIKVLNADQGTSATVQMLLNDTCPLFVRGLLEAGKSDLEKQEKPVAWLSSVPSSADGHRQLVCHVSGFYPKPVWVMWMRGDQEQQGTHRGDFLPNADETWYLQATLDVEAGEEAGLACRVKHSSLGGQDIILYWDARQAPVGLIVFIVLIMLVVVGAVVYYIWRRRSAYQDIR

Kd (human iNKT‐cell TCR) [µM]	koff (human iNKT‐cell TCR) [s⁻¹]	Koff, murine iNKT‐cell TCR from mCD1d/lipid complex [1] [S^-1]	Kon, murine iNKT‐cell TCR to mCD1d/lipid complex [1]	Kd [1] [µM]	Structure (SMILES)	Rejection of OVA‐expressing implanted tumors [2]	OVA‐specific CD8+ T cells in blood (tetramer) in tumor‐bearing mice [2]
0.61 ± 0.1	0.165	0.050	3.47 x10^4 M^-1 S^-1	1.44 ± 0.13	CCCCCCCCCCCCCCCCCCCCCCCCCC(=O)N[C@@H](CO[C@H]1CC[C@H](O)[C@H](O)[C@H]1O)[C@H](O)[C@H](O)CCCCCCCCCCCCCC [ThrCer 6]	rejected	peptide‐specific response
1.12 ± 0.13	0.41	0.059	3.93 x10^4 M^-1 S^-1	1.5 ± 0.16	CCCCCCCCCCCCCCCCCCCCCCCCCC(=O)N[C@@H](CO[C@H]1O[C@H](CO)[C@H](O)[C@H](O)[C@H]1O)[C@H](O)[C@H](O)CCCCCCCCCCCCCC [α‐GalCer, α‐galactosylceramide, reference compound]	–	peptide‐specific response
0.76 ± 0.08	0.142	0.214	8.39 x10^4 M^-1 S^-1	2.55 ± 0.17	CCCCCCCCCCCCCCCCCCCCCCCCCC(=O)NC(COC1CCCC(O)C(O)C1O)C(O)C(O)CCCCCCCCCCCCCC (stereo not shown) [ThrCer 7]	–	peptide‐specific response
